Assay results as given in ChEMBL document CHEMBL3608278 (J Med Chem, 2015).

How the values were obtained:
[1] = biological target: T1, Potassium voltage-gated channel subfamily A member 3 (Homo sapiens, UniProt P22001); assay type: cell-based, CHO-K1
[2] = biological target: T1, Potassium voltage-gated channel subfamily A member 3; set-up: species or system Blood
[3] = biological target: T1, Potassium voltage-gated channel subfamily A member 3; test: cell-based; set-up: species or system Blood

T1 sequence (P22001 whole entry): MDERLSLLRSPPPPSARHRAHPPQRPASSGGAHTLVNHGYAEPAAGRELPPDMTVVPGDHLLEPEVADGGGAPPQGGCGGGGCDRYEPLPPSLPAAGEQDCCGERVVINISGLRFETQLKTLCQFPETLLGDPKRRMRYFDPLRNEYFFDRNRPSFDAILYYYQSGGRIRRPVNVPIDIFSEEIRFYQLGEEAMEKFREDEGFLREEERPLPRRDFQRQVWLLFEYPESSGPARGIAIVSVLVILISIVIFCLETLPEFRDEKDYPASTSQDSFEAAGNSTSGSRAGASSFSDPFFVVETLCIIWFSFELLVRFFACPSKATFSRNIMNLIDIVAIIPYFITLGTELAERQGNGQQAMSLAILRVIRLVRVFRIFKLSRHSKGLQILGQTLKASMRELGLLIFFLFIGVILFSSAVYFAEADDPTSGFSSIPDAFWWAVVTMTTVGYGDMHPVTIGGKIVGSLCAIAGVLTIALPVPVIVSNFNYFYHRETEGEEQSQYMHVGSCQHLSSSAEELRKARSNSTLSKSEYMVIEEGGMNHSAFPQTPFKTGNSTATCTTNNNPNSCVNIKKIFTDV

| SMILES | IC50 [1] [nM] | IC50 [2] [nM] | IC50 [3] [nM] |
| --- | --- | --- | --- |
| CC[C@H](C)[C@@H]1NC(=O)[C@@H](NC(=O)[C@H](CO)NC(=O)[C@@H](N)CCCNC(=N)N)CSSC[C@@H](C(=O)O)NC(=O)[C@H]([C@@H](C)O)NC(=O)CNC(=O)[C@@H]2CSSC[C@@H]3NC(=O)[C@H](CCC(N)=O)NC(=O)[C@H](Cc4ccccc4)NC(=O)[C@H](C)NC(=O)[C@H]([C@@H](C)O)NC(=O)[C@H](CSSC[C@H](NC(=O)[C@H](Cc4ccccc4)NC(=O)[C@H](CO)NC(=O)[C@H](CC(C)C)NC(=O)[C@H](CCCNC(=N)N)NC(=O)[C@H](Cc4ccc(O)cc4)NC(=O)[C@H](CCCCN)NC(=O)[C@H](CCSC)NC(=O)[C@H](CO)NC(=O)[C@H](Cc4cnc[nH]4)NC(=O)[C@H](CCCCN)NC3=O)C(=O)N[C@@H](CCCNC(=N)N)C(=O)N[C@@H](CCCCN)C(=O)N[C@@H]([C@@H](C)O)C(=O)N2)NC(=O)[C@H](CCCNC(=N)N)NC(=O)[C@H](CO)NC(=O)[C@H](CCCCN)NC(=O)[C@@H]2CCCN2C(=O)[C@H](CCC(=O)O)NC(=O)[C@H]([C@@H](C)O)NC(=O)[C@H](CC(=O)O)NC1=O | 1.31 | 19.5 | 5 |
| CC[C@H](C)[C@@H]1NC(=O)[C@@H](NC(=O)[C@H](CO)NC(=O)[C@@H](N)CCCNC(=N)N)CSSC[C@@H](C(=O)O)NC(=O)[C@H]([C@@H](C)O)NC(=O)CNC(=O)[C@@H]2CSSC[C@@H]3NC(=O)[C@H](CCC(N)=O)NC(=O)[C@H](Cc4ccccc4)NC(=O)[C@H](C)NC(=O)[C@H]([C@@H](C)O)NC(=O)[C@H](CSSC[C@H](NC(=O)[C@H](Cc4ccccc4)NC(=O)[C@H](CO)NC(=O)[C@H](CC(C)C)NC(=O)[C@H](CCCNC(=N)N)NC(=O)[C@H](Cc4ccc(O)cc4)NC(=O)[C@H](CCCCN)NC(=O)[C@H](CCSC)NC(=O)[C@H](CO)NC(=O)[C@H](Cc4cnc[nH]4)NC(=O)[C@H](CCCCN)NC3=O)C(=O)N[C@@H](CCCNC(=N)N)C(=O)N[C@@H](CCCCN)C(=O)N[C@@H]([C@@H](C)O)C(=O)N2)NC(=O)[C@H](CCCNC(=N)N)NC(=O)[C@H](CO)NC(=O)[C@H](CCC(=O)O)NC(=O)[C@@H]2CCCN2C(=O)[C@H]([C@@H](C)CC)NC(=O)[C@H]([C@@H](C)O)NC(=O)[C@H](CC(=O)O)NC1=O | 0.146 | 0.056 | 0.037 |
| CC[C@H](C)[C@@H]1NC(=O)[C@@H](NC(=O)[C@H](CO)NC(=O)[C@@H](N)CCCNC(=N)N)CSSC[C@@H](C(=O)O)NC(=O)[C@H]([C@@H](C)O)NC(=O)CNC(=O)[C@@H]2CSSC[C@@H]3NC(=O)[C@H](CCC(N)=O)NC(=O)[C@H](Cc4ccccc4)NC(=O)[C@H](C)NC(=O)[C@H]([C@@H](C)O)NC(=O)[C@H](CSSC[C@H](NC(=O)[C@H](Cc4ccccc4)NC(=O)[C@H](CO)NC(=O)[C@H](CC(C)C)NC(=O)[C@H](CCCNC(=N)N)NC(=O)[C@H](Cc4ccc(O)cc4)NC(=O)[C@H](CCCCN)NC(=O)[C@H](CCSC)NC(=O)[C@H](CO)NC(=O)[C@H](Cc4cnc[nH]4)NC(=O)[C@H](CCCCN)NC3=O)C(=O)N[C@@H](CCCNC(=N)N)C(=O)N[C@@H](CCCCN)C(=O)N[C@@H]([C@@H](C)O)C(=O)N2)NC(=O)[C@H](CCC(=O)O)NC(=O)[C@H](CO)NC(=O)[C@H](CCCCN)NC(=O)[C@@H]2CCCN2C(=O)[C@H]([C@@H](C)CC)NC(=O)[C@H]([C@@H](C)O)NC(=O)[C@H](CC(=O)O)NC1=O | 0.983 | 4.54 | 1.32 |
| CC[C@H](C)[C@@H]1NC(=O)[C@@H](NC(=O)[C@H](CO)NC(=O)[C@@H](N)CCCNC(=N)N)CSSC[C@@H](C(=O)O)NC(=O)[C@H]([C@@H](C)O)NC(=O)CNC(=O)[C@@H]2CSSC[C@@H]3NC(=O)[C@H](CCC(N)=O)NC(=O)[C@H](Cc4ccccc4)NC(=O)[C@H](C)NC(=O)[C@H](CCC(=O)O)NC(=O)[C@H](CSSC[C@H](NC(=O)[C@H](Cc4ccccc4)NC(=O)[C@H](CO)NC(=O)[C@H](CC(C)C)NC(=O)[C@H](CCCNC(=N)N)NC(=O)[C@H](Cc4ccc(O)cc4)NC(=O)[C@H](CCCCN)NC(=O)[C@H](CCSC)NC(=O)[C@H](CO)NC(=O)[C@H](Cc4cnc[nH]4)NC(=O)[C@H](CCCCN)NC3=O)C(=O)N[C@@H](CCCNC(=N)N)C(=O)N[C@@H](CCCCN)C(=O)N[C@@H]([C@@H](C)O)C(=O)N2)NC(=O)[C@H](CCCNC(=N)N)NC(=O)[C@H](CO)NC(=O)[C@H](CCCCN)NC(=O)[C@@H]2CCCN2C(=O)[C@H]([C@@H](C)CC)NC(=O)[C@H]([C@@H](C)O)NC(=O)[C@H](CC(=O)O)NC1=O | 0.152 | 1.1 | 0.785 |

Now from value to compound:

| IC50 [1] [nM] | IC50 [2] [nM] | IC50 [3] [nM] | SMILES |
| --- | --- | --- | --- |
| > 3.33 | > 92 | > 92 | CC[C@H](C)[C@@H]1NC(=O)[C@@H](NC(=O)[C@H](CO)NC(=O)[C@@H](N)CCCNC(=N)N)CSSC[C@@H](C(=O)O)NC(=O)[C@H]([C@@H](C)O)NC(=O)CNC(=O)[C@@H]2CSSC[C@@H]3NC(=O)[C@H](CCC(N)=O)NC(=O)[C@H](Cc4ccccc4)NC(=O)[C@H](C)NC(=O)[C@H]([C@@H](C)O)NC(=O)[C@H](CSSC[C@H](NC(=O)[C@H](Cc4ccccc4)NC(=O)[C@H](CO)NC(=O)[C@H](CC(C)C)NC(=O)[C@H](CCCNC(=N)N)NC(=O)[C@H](Cc4ccc(O)cc4)NC(=O)[C@H](CCCCN)NC(=O)[C@H](CCSC)NC(=O)[C@H](CCC(=O)O)NC(=O)[C@H](Cc4cnc[nH]4)NC(=O)[C@H](CCCCN)NC3=O)C(=O)N[C@@H](CCCNC(=N)N)C(=O)N[C@@H](CCCCN)C(=O)N[C@@H]([C@@H](C)O)C(=O)N2)NC(=O)[C@H](CCCNC(=N)N)NC(=O)[C@H](CO)NC(=O)[C@H](CCCCN)NC(=O)[C@@H]2CCCN2C(=O)[C@H]([C@@H](C)CC)NC(=O)[C@H]([C@@H](C)O)NC(=O)[C@H](CC(=O)O)NC1=O |
| > 3.33 | 28.1 | 18.5 | CC[C@H](C)[C@@H]1NC(=O)[C@@H](NC(=O)[C@H](CO)NC(=O)[C@@H](N)CCCNC(=N)N)CSSC[C@@H](C(=O)O)NC(=O)[C@H]([C@@H](C)O)NC(=O)CNC(=O)[C@@H]2CSSC[C@@H]3NC(=O)[C@H](CCC(N)=O)NC(=O)[C@H](Cc4ccccc4)NC(=O)[C@H](C)NC(=O)[C@H]([C@@H](C)O)NC(=O)[C@H](CSSC[C@H](NC(=O)[C@H](Cc4ccccc4)NC(=O)[C@H](CO)NC(=O)[C@H](CC(C)C)NC(=O)[C@H](CCCNC(=N)N)NC(=O)[C@H](Cc4ccc(O)cc4)NC(=O)[C@H](CCCCN)NC(=O)[C@H](CCC(=O)O)NC(=O)[C@H](CO)NC(=O)[C@H](Cc4cnc[nH]4)NC(=O)[C@H](CCCCN)NC3=O)C(=O)N[C@@H](CCCNC(=N)N)C(=O)N[C@@H](CCCCN)C(=O)N[C@@H]([C@@H](C)O)C(=O)N2)NC(=O)[C@H](CCCNC(=N)N)NC(=O)[C@H](CO)NC(=O)[C@H](CCCCN)NC(=O)[C@@H]2CCCN2C(=O)[C@H]([C@@H](C)CC)NC(=O)[C@H]([C@@H](C)O)NC(=O)[C@H](CC(=O)O)NC1=O |
| > 3.33 | > 100 | > 100 | CC[C@H](C)[C@@H]1NC(=O)[C@@H](NC(=O)[C@H](CO)NC(=O)[C@@H](N)CCCNC(=N)N)CSSC[C@@H](C(=O)O)NC(=O)[C@H]([C@@H](C)O)NC(=O)CNC(=O)[C@@H]2CSSC[C@@H]3NC(=O)[C@H](CCC(N)=O)NC(=O)[C@H](Cc4ccccc4)NC(=O)[C@H](C)NC(=O)[C@H]([C@@H](C)O)NC(=O)[C@H](CSSC[C@H](NC(=O)[C@H](Cc4ccccc4)NC(=O)[C@H](CO)NC(=O)[C@H](CC(C)C)NC(=O)[C@H](CCCNC(=N)N)NC(=O)[C@H](Cc4ccc(O)cc4)NC(=O)[C@H](CCC(=O)O)NC(=O)[C@H](CCSC)NC(=O)[C@H](CO)NC(=O)[C@H](Cc4cnc[nH]4)NC(=O)[C@H](CCCCN)NC3=O)C(=O)N[C@@H](CCCNC(=N)N)C(=O)N[C@@H](CCCCN)C(=O)N[C@@H]([C@@H](C)O)C(=O)N2)NC(=O)[C@H](CCCNC(=N)N)NC(=O)[C@H](CO)NC(=O)[C@H](CCCCN)NC(=O)[C@@H]2CCCN2C(=O)[C@H]([C@@H](C)CC)NC(=O)[C@H]([C@@H](C)O)NC(=O)[C@H](CC(=O)O)NC1=O |
| 0.197 | 0.373 | 0.352 | CC[C@H](C)[C@@H]1NC(=O)[C@@H](NC(=O)[C@H](CO)NC(=O)[C@@H](N)CCCNC(=N)N)CSSC[C@@H](C(=O)O)NC(=O)[C@H]([C@@H](C)O)NC(=O)CNC(=O)[C@@H]2CSSC[C@@H]3NC(=O)[C@H](CCC(=O)O)NC(=O)[C@H](Cc4ccccc4)NC(=O)[C@H](C)NC(=O)[C@H]([C@@H](C)O)NC(=O)[C@H](CSSC[C@H](NC(=O)[C@H](Cc4ccccc4)NC(=O)[C@H](CO)NC(=O)[C@H](CC(C)C)NC(=O)[C@H](CCCNC(=N)N)NC(=O)[C@H](Cc4ccc(O)cc4)NC(=O)[C@H](CCCCN)NC(=O)[C@H](CCSC)NC(=O)[C@H](CO)NC(=O)[C@H](Cc4cnc[nH]4)NC(=O)[C@H](CCCCN)NC3=O)C(=O)N[C@@H](CCCNC(=N)N)C(=O)N[C@@H](CCCCN)C(=O)N[C@@H]([C@@H](C)O)C(=O)N2)NC(=O)[C@H](CCCNC(=N)N)NC(=O)[C@H](CO)NC(=O)[C@H](CCCCN)NC(=O)[C@@H]2CCCN2C(=O)[C@H]([C@@H](C)CC)NC(=O)[C@H]([C@@H](C)O)NC(=O)[C@H](CC(=O)O)NC1=O |
| 0.12 | 0.083 | 0.047 | CC[C@H](C)[C@@H]1NC(=O)[C@@H](NC(=O)[C@H](CO)NC(=O)[C@@H](N)CCCNC(=N)N)CSSC[C@@H](C(=O)O)NC(=O)[C@H]([C@@H](C)O)NC(=O)CNC(=O)[C@@H]2CSSC[C@@H]3NC(=O)[C@H](CCC(N)=O)NC(=O)[C@H](Cc4ccccc4)NC(=O)[C@H](C)NC(=O)[C@H]([C@@H](C)O)NC(=O)[C@H](CSSC[C@H](NC(=O)[C@H](Cc4ccccc4)NC(=O)[C@H](CO)NC(=O)[C@H](CC(C)C)NC(=O)[C@H](CCCNC(=N)N)NC(=O)[C@H](Cc4ccc(O)cc4)NC(=O)[C@H](CCCCN)NC(=O)[C@H](CCSC)NC(=O)[C@H](CO)NC(=O)[C@H](Cc4cnc[nH]4)NC(=O)[C@H](CCC(=O)O)NC3=O)C(=O)N[C@@H](CCCNC(=N)N)C(=O)N[C@@H](CCCCN)C(=O)N[C@@H]([C@@H](C)O)C(=O)N2)NC(=O)[C@H](CCCNC(=N)N)NC(=O)[C@H](CO)NC(=O)[C@H](CCCCN)NC(=O)[C@@H]2CCCN2C(=O)[C@H]([C@@H](C)CC)NC(=O)[C@H]([C@@H](C)O)NC(=O)[C@H](CC(=O)O)NC1=O |
